According to PMC5601071 (Frontiers in Pharmacology, 2017):
Read-outs that look alike come from different tables or passages of the source. Residues, ends and D or L forms follow the SMILES beside them.

What was measured:
[1] = target: T1, TREK-1 channel (hTREK-1/HEK cells) (Homo sapiens, UniProt O95069); details: ref Mazella et al., 2010, Moha ou Maati et al., 2011, cited from earlier work
T1 construct: expressed in transfected cells
T1 sequence (O95069 1-426): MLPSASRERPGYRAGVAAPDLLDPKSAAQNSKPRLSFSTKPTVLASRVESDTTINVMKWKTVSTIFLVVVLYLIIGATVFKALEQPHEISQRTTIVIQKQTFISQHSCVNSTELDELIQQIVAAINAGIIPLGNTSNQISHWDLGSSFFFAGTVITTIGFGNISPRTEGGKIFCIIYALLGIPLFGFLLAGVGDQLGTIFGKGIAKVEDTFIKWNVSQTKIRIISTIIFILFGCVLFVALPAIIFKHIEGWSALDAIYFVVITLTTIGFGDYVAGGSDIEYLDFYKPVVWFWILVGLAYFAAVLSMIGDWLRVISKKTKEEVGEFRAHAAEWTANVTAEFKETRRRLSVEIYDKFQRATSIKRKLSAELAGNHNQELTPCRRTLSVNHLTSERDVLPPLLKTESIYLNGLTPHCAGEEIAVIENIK
Source text: Depression is a devastating mental disorder that affects 20% of the population worldwide. Despite their proven efficacy, antidepressants present a delayed onset of action and serious adverse effects. Seven years ago, we described spadin (PE 12-28) as a promising endogenous peptide with antidepressant activity. Spadin specifically blocks the TREK-1 channel. […] In order to improve in vivo spadin stability and bioavailability, we screened spadin analogs and derivatives. From the study of spadin blood deg ... || Depression is one of the most common mood disorders that represents a heavy economic burden in industrialized countries (Smith, [2014]). Severe depression affects 2–5% of US citizens and up to 20% of the population suffer from mild depression (Nestler et al., [2002]; Maletic et al., [2007]; Krishnan and Nestler, [2008]; Kessler et al., [2012]). Depression is a complex syndrome with a variety of causes mostly genetic and environmental (Nestler et al., [2002]).

mouse serum = details: 37°C (Figure 1 legend), room temperature, up to 60 min
[2] = target: T1, TREK-1 channel (hTREK-1/HEK cells); test: TREK-1 current inhibition, whole-cell patch-clamp on hTREK-1/HEK cell line; type: cell-based; details: hTREK-1/HEK cells
Method: The human TREK-1/HEK cell line (Moha ou Maati et al., [2011]) and the native HEK293 cell line were maintained in Dulbecco's Modified Eagle's Medium (DMEM) supplemented with 10% (v/v) heat-inactivated fetal bovine serum, 1% (v/v) penicillin-streptomycin, 1% Glutamax. For the hTREK-1/HEK cells, 0.5 mg/ml G418 were added to the medium.
Cells were incubated in a humidified atmosphere containing 5% CO2. For electrophysiological measurements, cells were plated at a density of 20,000 cells per 35 mm dish.
Cells from the hTREK-1/HEK cell line were seeded at a density of 20,000 cells/35 mm dish. Electrophysiological recordings were performed 24–48 h after plating using the whole-cell configuration of patch-clamp technique. TREK-1 currents (ITREK−1) were recorded using RK400 patch-clamp amplifier (Axon Instrument, USA). They were low-pass filtered at 3 kHz and digitized at 10 kHz using a 12-bit analog-to-digital converter digidata (1322 series, Axon Instrument, USA). ITREK−1amplitudes were expressed as current densities [current amplitude (pA)/membrane capacitance (pF)]. The results were expressed as mean ± SEM (standard error of the mean).
Cells were continuously perfused using an external bath solution containing in mM: 150 NaCl, 5 KCl, 3 MgCl2, 1 CaCl2, and 10 HEPES. The bath solution was initially adjusted to pH 7.4 with NaOH. The intra-pipette solution contained in mM: 155 KCl, 3 MgCl2, 5 EGTA, and 10 HEPES adjusted to pH 7.2 with KOH. In order to measure ITREK−1, a cocktail of potassium channel blockers was added to the bath solution. This cocktail contained: 3 mM 4-AP (4-aminopyridine), 10 mM TEA (tetraethylammonium), 10 μM Glibenclamide, 100 nM Apamin, and 50 nM Charybdotoxin. Data acquisition was carried out using a computer (Dell Pentium) with pClamp software (Axon Instrument, USA). Whole-cell currents were generated by running a pulse or ramp protocol every 5 s from −100 to +60 mV with a holding potential maintained at −80 mV. To evaluate the inhibitory effect on TREK-1 channels of shortened spadin analogs compared with spadin, cells were first activated by 10 μM arachidonic acid (AA). Dose-response curves were realized to compare spadin-analog effects with spadin using Origin 8.6 (Northampton, MA, USA).
Patch-clamp recording data were analyzed using Clampfit (Molecular Devices, USA). I = f(V) curves were obtained from −100 to +60 mV ramp. Data were presented as mean ± SEM.

[3] = In vitro degradation / half-life time in serum; type: in vitro ADME, mouse; details: mouse serum, 30 min, 37°C (method b20: 10 nmoles in 200 μl serum, room temperature); HPLC
Method: […] Incubations were stopped by direct acidification (5 μl of 2.5 M HCl), loaded in C-18 sepack cartridges, lyophilized, resuspended in 20% acetonitrile before loading onto HPLC for analysis of PE degradation/stability. Elutions of HPLC products were carried out by means of a 50-min linear gradient of acetonitrile from 20 to 70% at a flow rate of 1 ml/min. The amount of the intact PE for each incubation time was expressed as the percent of the initial amount of spadin.

For `CNCCC(Oc1ccc(C(F)(F)F)cc1)c1ccccc1` (stereo not drawn) [fluoxetine], the IC50 ([1]; read-out: IC50 for TREK-1 block (fluoxetine)) is listed as about 6000 nM.

In the case of APLPRWSGPIGVSWGLR, the fragment found (mouse serum) is reported as “PE 12-27”.

For `CC[C@H](C)[C@H](NC(=O)[C@@H]1CCCN1C(=O)CNC(=O)[C@H](CO)NC(=O)[C@H](Cc1c[nH]c2ccccc12)NC(=O)[C@H](CCCNC(=N)N)NC(=O)[C@@H]1CCCN1C(=O)[C@H](CC(C)C)NC(=O)[C@@H]1CCCN1C(=O)[C@H](C)N)C(=O)NCC(=O)N[C@H](C(=O)N[C@@H](CO)C(=O)N[C@@H](Cc1c[nH]c2ccccc12)C(=O)NCC(=O)N[C@@H](CC(C)C)C(=O)N[C@@H](CCCNC(=N)N)C(=O)O)C(C)C` [PE 12-28 (Spadin), reference compound] (H-APLPRWSGPIGVSWGLR-OH), the inhibition at 0.1 µM ([2]; HEK293, peptide 100 nM, TREK-1 first activated with 10 μM arachidonic acid (AA), current density at 0 mV, mean ± SEM, n = cells, read-out: % of TREK-1 inhibition) was 44.4 ± 8.82%, the IC50 ([2]; dose-response curves at 0 mV, activated by 10 μM AA) was 40 nM and the “spadin remaining after incubation with serum” value [3] was “disappearance of almost all spadin”. The IC50 ([1]; Moha Ou Maati et al., 2012, read-out: IC50 for TREK-1 block (spadin)) was 40 to 60 nM.
